According to PubChem BioAssay (NCI):
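Test compounds were applied to cells in 96-well plates for 48 hours at 5 doses. TGI marks complete inhibition of growth.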

How the values were obtained:
Assay in all cases: NCI anticancer screen, dose series, 48 h
DU-145 prostate = system: DU-145 prostate
A549 NSCLC = system: A549 NSCLC
MDA-N = system: MDA-N
CCRF-CEM leukemia = system: CCRF-CEM leukemia
NCI-H522 lung = system: NCI-H522 lung
EKVX NSCLC = system: EKVX NSCLC
UACC-257 melanoma = system: UACC-257 melanoma
786-0 renal = system: 786-0 renal
OVCAR-8 ovarian = system: OVCAR-8 ovarian
HCC-2998 colon = system: HCC-2998 colon
HL-60(TB) leukemia = system: HL-60(TB) leukemia
MALME-3M melanoma = system: MALME-3M melanoma
ACHN renal = system: ACHN renal
HOP-92 NSCLC = system: HOP-92 NSCLC
HCT-116 colon = system: HCT-116 colon
CAKI-1 renal = system: CAKI-1 renal
UACC-62 melanoma = system: UACC-62 melanoma
BT-549 breast = system: BT-549 breast
HOP-62 NSCLC = system: HOP-62 NSCLC
NCI-H226 lung = system: NCI-H226 lung
SK-OV-3 ovarian = system: SK-OV-3 ovarian
SF-268 CNS = system: SF-268 CNS
SK-MEL-28 melanoma = system: SK-MEL-28 melanoma
COLO 205 colon = system: COLO 205 colon
A498 renal = system: A498 renal
MDA-MB-435 = system: MDA-MB-435
RPMI-8226 leukemia = system: RPMI-8226 leukemia
M14 melanoma = system: M14 melanoma
SW-620 colon = system: SW-620 colon
K-562 leukemia = system: K-562 leukemia
MOLT-4 leukemia = system: MOLT-4 leukemia
UO-31 renal = system: UO-31 renal
HCT-15 colon = system: HCT-15 colon
MCF7 breast = system: MCF7 breast
SR leukemia = system: SR leukemia
KM12 colon = system: KM12 colon
MDA-MB-231 breast = system: MDA-MB-231 breast
NCI-H460 lung = system: NCI-H460 lung
OVCAR-3 ovarian = system: OVCAR-3 ovarian
SK-MEL-5 melanoma = system: SK-MEL-5 melanoma
NCI/ADR-RES ovarian = system: NCI/ADR-RES ovarian
NCI-H23 lung = system: NCI-H23 lung
HT29 colon = system: HT29 colon
RXF 393 renal = system: RXF 393 renal
SNB-19 CNS = system: SNB-19 CNS
OVCAR-5 ovarian = system: OVCAR-5 ovarian
PC-3 prostate = system: PC-3 prostate
U251 CNS = system: U251 CNS
SF-295 CNS = system: SF-295 CNS
SF-539 CNS = system: SF-539 CNS
HS 578T breast = system: HS 578T breast
TK-10 renal = system: TK-10 renal
LOX IMVI melanoma = system: LOX IMVI melanoma
IGROV1 ovarian = system: IGROV1 ovarian
SNB-75 CNS = system: SNB-75 CNS

Measured: TGI

O=P(O)(O)C(NCC(O)CN1CCOCC1)P(=O)(O)O (stereo not given)
> 100 µM: all assays above
